Data on 4 molecules can be found in US9763915B2, “Adjuvants in anti-cancer chemotherapy” (PharmOxaco SáRL, priority 2013, dated 2017).

Several values for one entry are separate records, joined by “and”; a condition that tells them apart may be missing. Identical values can stand only once.

The subject of data set [1] is human follicular lymphoma cell line (DoHH2). The data set is described as follows: Annexin V apoptosis assay, follicular lymphoma cell line DoHH2. Format: cell-based. To be noted: DoHH2, 48 hours, 25 μM alone. How it is done:
(§1) Next the cells were cultivated in the same way, but in the combined presence of dasatinib (25 μM) and the individual trioxanes T16, T45, and T7 in concentrations of 1.0 and 10 μM (see Tables below). As mentioned above, the Annexin V apoptosis assay was used to detect the Annexin V protein on cells undergoing apoptosis. Dead cells (post-apoptopic) were determined by positivity toward propidium iodide. The percentages of apoptopic, post-apoptopic cells, and their total are shown for each test. […] Synergy is noted as moderate (*), high (**), or exceptionally high (***).
Human Follicular Lymphoma (DoHH2)

Data set [2] deals with human Burkitt's lymphoma cell line (Raji). The experiment in a line: Annexin V apoptosis assay, Burkitt's lymphoma cell line Raji. It is filed as cell-based. To be noted: 48 hours, 25 μM alone. How it is done:
as §1
Human Burkitt's Lymphoma (Raji)

The test system of data set [3] is MCF-7 breast cancer cell line. The data set is described as follows: Annexin V apoptosis assay, poorly proliferating MCF-7 breast cancer cells. To be noted: MCF-7, 48 hours, vehicle baseline 13-18%.
Text: (§2) The same experimental set-up was also utilized to test the synergistic capacity of trioxane T59 with imatinib.
(§3) The test read-out was the Annexin V apoptosis assay kit from Becton-Dickinson, which detects the presence of the Annexin V protein on the surface of cells undergoing apoptosis and positivity toward propidium iodide for dead cells.
In data set [4] the test system is MDA-468 breast cancer cell line. The experiment in a line: Annexin V apoptosis assay, fast proliferating MDA-468 breast cancer cells. To be noted: MDA-468, 48 hours, vehicle baseline 13-18%.
Text: as §2, §3
A further data set has as its system CD® rats. The data set is described as follows: Two-week toxicity study in CD rats. Format: in vivo. How it is done: As a bellwether, the toxicity of trioxane T7 has been evaluated and compared with that of artemether in CD® rats following two weeks of oral administration (gavage) and intramuscular injection, respectively. Trioxane T7 was administered at doses of 0, 15, 30, and 60 mg/kg/day in Lipomul® emulsion, while artemether was dosed at 0, 10, 20, and 40 mg/kg/day.

For data set [5], the system named is rats. To be noted: Brewer et al. 1994; cited from earlier work.
The next data set deals with dogs. To be noted: Brewer et al. 1994; cited from earlier work.
Data set [6] deals with rats. The data set is described as follows: Further testing in a group of rats (mortality). To be noted: 40 mg/kg/day.

As to `Cc1nc(Nc2ncc(C(=O)Nc3c(C)cccc3Cl)s2)cc(N2CCN(CCO)CC2)n1` [Dasatinib, dasatinib], the “Apoptopic Cells, in %” value in data set [1] is 4.58%; in data set [2], 7.9%. For the same molecule, the “Post-apoptopic Cells, in %” value in data set [1] is on record as 11.76%; in data set [2], 15.18%. Moreover, the “Total Dead Cells, in %” value came to 16.34% in data set [1] (vehicle baseline 13-18%) and 23.15% in data set [2] (vehicle baseline 13-18%).
As for `Cc1ccc(NC(=O)c2ccc(CN3CCN(C)CC3)cc2)cc1Nc1nccc(-c2cccnc2)n1` [Imatinib, imatinib], the “percentage of dead cells (dead+apoptotic)” value in data set [3] (10 μM alone) is 14.05% and 14.15%; in data set [4] (10 μM alone), 13.60% and 13.16%.
For the molecule `CO[C@H]1O[C@@H]2O[C@@]3(C)CC[C@H]4[C@H](C)CC[C@@H]([C@H]1C)[C@@]24OO3` [artemether], in the data set on CD® rats (two weeks intramuscular injection, 10, 20, 40 mg/kg/day), the toxic effects entry is “CNS excitability, neuronal chromatolysis, and gliosis in the brain stem”. The “toxic effects at mid-dose” value in the data set with CD® rats (two weeks intramuscular injection, mid-dose (of 10, 20, 40 mg/kg/day)) is “neurotoxic manifestations were observed, including hematoxicity and hepatotoxicity”. For the same molecule, the reported toxicity entry in the data set on rats [5] and with dogs was “neurotoxicity” in each case. Besides, the mortality result in the data set with rats [6] is “killed most of the rats”.
For the molecule `Oc1ccc(C=Cc2cc(O)cc(O)c2)cc1` [Resveratrol, resveratrol], the “percentage of dead cells (dead+apoptotic)” value in data set [3] (1 μM alone) was found to be 16.05%; in data set [4] (1 μM alone), 11.30%.
